Source: PubChem BioAssay AID2060507 (Molecular Pharmacology Branch, DTP, NCI, 2025)

Tested on: 519858-162-T-J1-PDC complex spheroid viability
Experiment: Anticancer human tumor 519858-162-T-J1-PDC patient-derived colon adenocarcinoma cell line growth inhibition [GQUAD]
Conditions: for IC50: curve of first compound; for viability, T/C: stronger effect = lower value
In short: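 Tumor cells were grown as complex spheroids with HUVEC endothelial cells and mesenchymal stem cells as stroma. G-quadruplex stabilizers were combined with targeted agents over half-log dilutions from near the clinical Cmax, or from 10 microM.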

[1] = second compound 0.0316 µM, first compound 0.0316 µM
[2] = second compound 0.0316 µM, first compound 0.1 µM
[3] = second compound 0.0316 µM, first compound 0.316 µM
[4] = second compound 0.0316 µM, first compound 1 µM
[5] = second compound 0.0316 µM, first compound 3.16 µM
[6] = second compound 0.0316 µM, first compound 10 µM
[7] = second compound 0.1 µM, first compound 0.0316 µM
[8] = second compound 0.1 µM, first compound 0.1 µM
[9] = second compound 0.1 µM, first compound 0.316 µM
[10] = second compound 0.1 µM, first compound 1 µM
[11] = second compound 0.1 µM, first compound 3.16 µM
[12] = second compound 0.1 µM, first compound 10 µM
[13] = second compound 0.316 µM, first compound 0.0316 µM
[14] = second compound 0.316 µM, first compound 0.1 µM
[15] = second compound 0.316 µM, first compound 0.316 µM
[16] = second compound 0.316 µM, first compound 1 µM
[17] = second compound 0.316 µM, first compound 3.16 µM
[18] = second compound 0.316 µM, first compound 10 µM
[19] = second compound 1 µM, first compound 0.0316 µM
[20] = second compound 1 µM, first compound 0.1 µM
[21] = second compound 1 µM, first compound 0.316 µM
[22] = second compound 1 µM, first compound 1 µM
[23] = second compound 1 µM, first compound 3.16 µM
[24] = second compound 1 µM, first compound 10 µM
[25] = second compound 3.16 µM, first compound 0.0316 µM
[26] = second compound 3.16 µM, first compound 0.1 µM
[27] = second compound 3.16 µM, first compound 0.316 µM
[28] = second compound 3.16 µM, first compound 1 µM
[29] = second compound 3.16 µM, first compound 3.16 µM
[30] = second compound 3.16 µM, first compound 10 µM
[31] = second compound 10 µM, first compound 0.0316 µM
[32] = second compound 10 µM, first compound 0.1 µM
[33] = second compound 10 µM, first compound 0.316 µM
[34] = second compound 10 µM, first compound 1 µM
[35] = second compound 10 µM, first compound 3.16 µM
[36] = second compound 10 µM, first compound 10 µM
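Also: spheroids exposed to compounds for 7 days.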
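For viability, T/C in this document: 100% = DMSO vehicle control viability.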

C#Cc1c(F)ccc2cc(O)cc(-c3ncc4c(N5CC6CCC(C5)N6)nc(OCC56CCCN5CC(F)C6)nc4c3F)c12 (centres undefined) + Cc1cnc(CNC(=O)c2c(=O)c3ccc(N4CCCN(C)CC4)nc3n3c2sc2ccccc23)cn1
IC50 (second compound 0.0316 µM): > 10000 nM | IC50 (second compound 0.1 µM): > 10000 nM | IC50 (second compound 0.316 µM): 9620 nM | IC50 (second compound 1 µM): 3610 nM | IC50 (second compound 3.16 µM): 1270 nM | IC50 (second compound 10 µM): < 31.6 nM | viability, T/C [1]: 71.2% | viability, T/C [2]: 81.3% | viability, T/C [3]: 83.4% | viability, T/C [4]: 104% | viability, T/C [5]: 78.2% | viability, T/C [6]: 73.9% | viability, T/C [7]: 78.8% | viability, T/C [8]: 89% | viability, T/C [9]: 61.9% | viability, T/C [10]: 84.2% | viability, T/C [11]: 70.7% | viability, T/C [12]: 92% | viability, T/C [13]: 65% | viability, T/C [14]: 88% | viability, T/C [15]: 73.3% | viability, T/C [16]: 66.6% | viability, T/C [17]: 83.1% | viability, T/C [18]: 49.2% | viability, T/C [19]: 70.1% | viability, T/C [20]: 56.7% | viability, T/C [21]: 63.5% | viability, T/C [22]: 55.9% | viability, T/C [23]: 48.8% | viability, T/C [24]: 46.4% | viability, T/C [25]: 46.6% | viability, T/C [26]: 63.5% | viability, T/C [27]: 53.4% | viability, T/C [28]: 53.1% | viability, T/C [29]: 34.5% | viability, T/C [30]: 42% | viability, T/C [31]: 32.5% | viability, T/C [32]: 55.2% | viability, T/C [33]: 48.4% | viability, T/C [34]: 53.4% | viability, T/C [35]: 52.4% | viability, T/C [36]: 41.7%

CC(C)(O)C1CCC(Nc2ccc3ncc(-c4cccc(C(F)(F)F)c4)n3n2)CC1 (centres undefined) + Cc1cnc(CNC(=O)c2c(=O)c3ccc(N4CCCN(C)CC4)nc3n3c2sc2ccccc23)cn1
IC50 (second compound 0.0316 µM): 2150 nM | IC50 (second compound 0.1 µM): 1980 nM | IC50 (second compound 0.316 µM): 1450 nM | IC50 (second compound 1 µM): 262 nM | IC50 (second compound 3.16 µM): < 31.6 nM | IC50 (second compound 10 µM): 31.6 nM | viability, T/C [1]: 101% | viability, T/C [2]: 111% | viability, T/C [3]: 93.2% | viability, T/C [4]: 103% | viability, T/C [5]: 11% | viability, T/C [6]: 36.5% | viability, T/C [7]: 87.6% | viability, T/C [8]: 95.5% | viability, T/C [9]: 107% | viability, T/C [10]: 105% | viability, T/C [11]: 8.82% | viability, T/C [12]: 24.6% | viability, T/C [13]: 107% | viability, T/C [14]: 72.4% | viability, T/C [15]: 63.5% | viability, T/C [16]: 80.9% | viability, T/C [17]: 20.8% | viability, T/C [18]: 31.2% | viability, T/C [19]: 71.1% | viability, T/C [20]: 68.8% | viability, T/C [21]: 42.1% | viability, T/C [22]: 48.5% | viability, T/C [23]: 42.4% | viability, T/C [24]: 52.3% | viability, T/C [25]: 37.5% | viability, T/C [26]: 43.1% | viability, T/C [27]: 50.8% | viability, T/C [28]: 47.1% | viability, T/C [29]: 31.4% | viability, T/C [30]: 20.8% | viability, T/C [31]: 36.4% | viability, T/C [32]: 45.3% | viability, T/C [33]: 52.3% | viability, T/C [34]: 64.7% | viability, T/C [35]: 9.24% | viability, T/C [36]: 0.75%
